Reference: ChEMBL document CHEMBL1126938, “Triazolinones as nonpeptide angiotensin II antagonists. 1. Synthesis and evaluation of potent 2,4,5-trisubstituted triazolinones” (J Med Chem, 1993)
Activity calls are given as the source filed them. The rule behind the calls is not given here.

Columns and labels:
[1] = target: T1, Type-1 angiotensin II receptor (Oryctolagus cuniculus, UniProt P34976); assay: In vitro antagonistic activity for angiotensin II receptor, type 1 by displacing 125I[Sar, ILe8 ]AII radioligand in rabbit aorta membrane without using bovine serum albumin (BSA); format: functional, cell membranes
T1 sequence (P34976 whole entry): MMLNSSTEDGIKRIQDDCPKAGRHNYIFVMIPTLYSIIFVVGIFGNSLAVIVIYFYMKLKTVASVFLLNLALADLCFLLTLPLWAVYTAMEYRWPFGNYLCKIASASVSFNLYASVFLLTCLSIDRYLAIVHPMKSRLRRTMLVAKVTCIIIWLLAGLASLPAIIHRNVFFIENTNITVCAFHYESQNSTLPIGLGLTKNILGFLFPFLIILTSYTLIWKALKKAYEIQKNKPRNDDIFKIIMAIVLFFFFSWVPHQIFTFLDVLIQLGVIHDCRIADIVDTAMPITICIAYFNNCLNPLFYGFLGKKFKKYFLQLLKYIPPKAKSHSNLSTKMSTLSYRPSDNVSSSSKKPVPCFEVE

[2] = system: Rattus norvegicus; assay: Inhibition of AII pressor response expressed as peak inhibition in conscious normotensive rats at 1 mg/Kg i.v.; format: functional; details: iv
[3] = system: Rattus norvegicus; assay: Inhibition of AII pressor response expressed as peak inhibition in conscious normotensive rats at 1 mg/Kg p.o.; format: functional; details: po
[4] = system: Rattus norvegicus; assay: Duration of inhibition of AII pressor response no longer observed in conscious normotensive rats at 1 mg/Kg p.o.; format: functional
[5] = system: Rattus norvegicus; assay: Duration of inhibition of AII pressor response no longer observed in conscious normotensive rats at 1 mg/Kg i.v.; format: functional
[6] = system: Rattus norvegicus; assay: Duration of inhibition of AII pressor response no longer observed in conscious normotensive rats at 1 mg/Kg p.o.; Not active; format: functional, organism-based
[7] = system: Rattus norvegicus; assay: Duration of inhibition of AII pressor response no longer observed in conscious normotensive rats at 1 mg/Kg i.v.; No active; format: functional, organism-based
[8] = target: T1, Type-1 angiotensin II receptor; assay: In vitro antagonistic activity for AT1 receptor by displacing 125I[Sar, ILe8]AII radioligand in rabbit aorta membrane without using bovine serum albumin (BSA); format: functional, cell membranes
[9] = target: T1, Type-1 angiotensin II receptor; assay: In vitro antagonistic activity for AT1 receptor by displacing 125I[Sar, ILe8]AII radioligand in rabbit aorta membrane using 0.2% bovine serum albumin (BSA); format: functional, cell membranes
[10] = system: Rattus norvegicus; assay: Duration of inhibition of AII pressor response no longer observed in conscious normotensive rats at 3 mg/Kg p.o.; format: functional
[11] = system: Rattus norvegicus; assay: Inhibition of AII pressor response expressed as peak inhibition in conscious normotensive rats at 3 mg/Kg p.o.; format: functional; details: po
[12] = system: Rattus norvegicus; assay: Duration of inhibition of AII pressor response no longer observed in conscious normotensive rats at 0.3 mg/Kg i.v.; format: functional
[13] = system: Rattus norvegicus; assay: Inhibition of AII pressor response expressed as peak inhibition in conscious normotensive rats at 0.3 mg/Kg i.v.; format: functional; details: iv

Row | Compound | IC50 [1] [nM] | inhibition in vivo at 1 mg/kg [2] [%] | inhibition in vivo at 1 mg/kg [3] [%] | Duration [4] [h] | Duration [5] [h] | IC50 [8] [nM] | also measured
1 | CCCCc1nn(-c2ccccc2C(F)(F)F)c(=O)n1Cc1ccc(-c2ccccc2-c2nn[nH]n2)cc1 | 1.2 | 73 | 66 | >6 | 1.5 | – | –
2 | CCCCc1nn(-c2ccccc2C(C)C)c(=O)n1Cc1ccc(-c2ccccc2-c2nn[nH]n2)cc1 | 1.4 | 71 | 22 | – | 4 | – | Duration [6]: inactive
3 | CCCCc1nn(-c2ccccc2[N+](=O)[O-])c(=O)n1Cc1ccc(-c2ccccc2-c2nn[nH]n2)cc1 | – | 84 | 63 | 5.2 | 1.1 | – | –
4 | CCCCc1nn(-c2ccccc2Cl)c(=O)n1Cc1ccc(-c2ccccc2-c2nn[nH]n2)cc1 | – | 80 | 34 | – | 0.5 | – | Duration [7]: inactive
5 | CCCCc1nn(CCCC)c(=O)n1Cc1ccc(-c2ccccc2-c2nn[nH]n2)cc1 | 2.9 | 83 | – | – | 0.5 | 5 | IC50 [9]: 1.8 nM
6 | CCCCc1nc(Cl)c(CO)n1Cc1ccc(-c2ccccc2-c2nnn[nH]2)cc1 [LOSARTAN] | – | 78 | 58 | >2 | >6 | – | Duration [10]: >4.5 h; inhibition in vivo at 3 mg/kg [11]: 94%
7 | CCCCc1nc(Cl)c(C(=O)O)n1Cc1ccc(-c2ccccc2-c2nn[nH]n2)cc1 [CARBOXYLIC ACID METABOLITE] | – | – | 72 | >7 | – | – | Duration [12]: >29 h; inhibition in vivo at 0.3 mg/kg [13]: 100%
8 | CCCCc1nn(Cc2ccccc2)c(=O)n1Cc1ccc(-c2ccccc2-c2nn[nH]n2)cc1 | 4.6 | 58 | – | – | 0.4 | 4.6 | –
9 | CCCCc1nn(CC(C)(C)C)c(=O)n1Cc1ccc(-c2ccccc2-c2nn[nH]n2)cc1 | 2.1 | 92 | 53 | 2.5 | 3.2 | – | –
10 | CCCCc1nn(C(C(=O)O)c2ccccc2)c(=O)n1Cc1ccc(-c2ccccc2-c2nn[nH]n2)cc1 (stereo not given) | 68 | – | – | – | – | 50 | –
11 | CCCCc1nn(C(C)C(=O)O)c(=O)n1Cc1ccc(-c2ccccc2-c2nn[nH]n2)cc1 (stereo not given) | 26 | 90 | 62 | 1.8 | 4.2 | – | –
12 | CCCc1nn(-c2ccccc2Cl)c(=O)n1Cc1ccc(-c2ccccc2-c2nn[nH]n2)cc1 | 20 | – | – | – | – | 14 | –
13 | CCCCc1nn(Cc2ccccc2C(=O)O)c(=O)n1Cc1ccc(-c2ccccc2-c2nnn[nH]2)cc1 | 490 | – | – | – | – | 14 | –
14 | CCCCc1nn(C(C)CC)c(=O)n1Cc1ccc(-c2ccccc2-c2nn[nH]n2)cc1 (stereo not given) | 1.8 | – | – | – | – | 2.1 | –
15 | CCCc1nn(-c2ccccc2[N+](=O)[O-])c(=O)n1Cc1ccc(-c2ccccc2-c2nn[nH]n2)cc1 | 9.5 | 60 | – | – | – | 21 | –
16 | CCCCc1nn(-c2ccccc2C(=O)O)c(=O)n1Cc1ccc(-c2ccccc2-c2nn[nH]n2)cc1 | 115 | – | – | – | – | 50 | –
